In ChEMBL document CHEMBL5653615 (J Biol Chem, 2013):

How the values were obtained:
[1] = target: T1, Cytoplasmic tyrosine-protein kinase BMX (Homo sapiens) (UniProt P51813); assay: Inhibition of human BMX at 500 nM by HotSpot assay relative to control
T1 sequence (whole entry): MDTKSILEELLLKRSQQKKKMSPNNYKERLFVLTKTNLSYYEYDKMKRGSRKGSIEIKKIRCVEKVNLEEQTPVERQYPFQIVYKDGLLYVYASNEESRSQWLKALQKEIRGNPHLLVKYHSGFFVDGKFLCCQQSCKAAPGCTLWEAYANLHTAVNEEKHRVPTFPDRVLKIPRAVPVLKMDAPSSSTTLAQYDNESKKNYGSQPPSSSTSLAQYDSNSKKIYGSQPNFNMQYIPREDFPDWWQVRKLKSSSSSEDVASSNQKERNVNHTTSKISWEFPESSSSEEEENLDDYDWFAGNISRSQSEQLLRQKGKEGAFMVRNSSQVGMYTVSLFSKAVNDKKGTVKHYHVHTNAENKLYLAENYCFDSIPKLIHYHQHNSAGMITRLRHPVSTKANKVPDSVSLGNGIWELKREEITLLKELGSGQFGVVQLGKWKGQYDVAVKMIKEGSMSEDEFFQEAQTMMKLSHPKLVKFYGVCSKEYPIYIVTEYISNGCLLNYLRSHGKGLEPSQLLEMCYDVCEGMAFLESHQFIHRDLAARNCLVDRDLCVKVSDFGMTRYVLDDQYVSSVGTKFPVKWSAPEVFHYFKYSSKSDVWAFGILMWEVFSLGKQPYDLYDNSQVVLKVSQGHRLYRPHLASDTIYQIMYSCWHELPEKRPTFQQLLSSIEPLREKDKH

[2] = target: T2, Discoidin domain-containing receptor 2 (Homo sapiens) (UniProt Q16832); assay: Inhibition of human DDR2 at 500 nM by HotSpot assay relative to control
T2 sequence (whole entry): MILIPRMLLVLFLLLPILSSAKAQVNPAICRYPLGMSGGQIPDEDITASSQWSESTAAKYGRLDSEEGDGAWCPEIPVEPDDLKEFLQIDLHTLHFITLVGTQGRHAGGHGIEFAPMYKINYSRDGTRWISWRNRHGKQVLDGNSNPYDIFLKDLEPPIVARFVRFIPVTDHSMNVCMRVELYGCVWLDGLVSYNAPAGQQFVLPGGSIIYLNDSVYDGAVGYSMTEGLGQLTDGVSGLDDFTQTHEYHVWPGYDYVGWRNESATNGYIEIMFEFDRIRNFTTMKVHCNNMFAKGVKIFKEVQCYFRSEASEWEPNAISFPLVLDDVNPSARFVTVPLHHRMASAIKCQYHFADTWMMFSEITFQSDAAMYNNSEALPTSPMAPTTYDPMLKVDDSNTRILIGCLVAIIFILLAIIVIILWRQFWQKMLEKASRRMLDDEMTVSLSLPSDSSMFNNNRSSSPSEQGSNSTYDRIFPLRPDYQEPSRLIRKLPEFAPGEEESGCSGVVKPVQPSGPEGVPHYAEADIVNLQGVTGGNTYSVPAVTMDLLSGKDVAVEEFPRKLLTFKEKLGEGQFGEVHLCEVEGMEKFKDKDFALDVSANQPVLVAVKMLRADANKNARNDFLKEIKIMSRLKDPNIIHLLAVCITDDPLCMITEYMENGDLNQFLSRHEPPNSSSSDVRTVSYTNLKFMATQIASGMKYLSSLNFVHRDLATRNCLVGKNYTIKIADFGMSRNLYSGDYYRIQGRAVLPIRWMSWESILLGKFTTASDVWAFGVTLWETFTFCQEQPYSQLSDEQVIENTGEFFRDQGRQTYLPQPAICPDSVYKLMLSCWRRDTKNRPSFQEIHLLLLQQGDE

[3] = target: Ephrin type-A receptor 7 (Homo sapiens) (UniProt Q15375); assay: Inhibition of human EPHA7 at 500 nM by HotSpot assay relative to control
Chain of Ephrin type-A receptor 7 (Homo sapiens) (Q15375 28-998 limits assumed): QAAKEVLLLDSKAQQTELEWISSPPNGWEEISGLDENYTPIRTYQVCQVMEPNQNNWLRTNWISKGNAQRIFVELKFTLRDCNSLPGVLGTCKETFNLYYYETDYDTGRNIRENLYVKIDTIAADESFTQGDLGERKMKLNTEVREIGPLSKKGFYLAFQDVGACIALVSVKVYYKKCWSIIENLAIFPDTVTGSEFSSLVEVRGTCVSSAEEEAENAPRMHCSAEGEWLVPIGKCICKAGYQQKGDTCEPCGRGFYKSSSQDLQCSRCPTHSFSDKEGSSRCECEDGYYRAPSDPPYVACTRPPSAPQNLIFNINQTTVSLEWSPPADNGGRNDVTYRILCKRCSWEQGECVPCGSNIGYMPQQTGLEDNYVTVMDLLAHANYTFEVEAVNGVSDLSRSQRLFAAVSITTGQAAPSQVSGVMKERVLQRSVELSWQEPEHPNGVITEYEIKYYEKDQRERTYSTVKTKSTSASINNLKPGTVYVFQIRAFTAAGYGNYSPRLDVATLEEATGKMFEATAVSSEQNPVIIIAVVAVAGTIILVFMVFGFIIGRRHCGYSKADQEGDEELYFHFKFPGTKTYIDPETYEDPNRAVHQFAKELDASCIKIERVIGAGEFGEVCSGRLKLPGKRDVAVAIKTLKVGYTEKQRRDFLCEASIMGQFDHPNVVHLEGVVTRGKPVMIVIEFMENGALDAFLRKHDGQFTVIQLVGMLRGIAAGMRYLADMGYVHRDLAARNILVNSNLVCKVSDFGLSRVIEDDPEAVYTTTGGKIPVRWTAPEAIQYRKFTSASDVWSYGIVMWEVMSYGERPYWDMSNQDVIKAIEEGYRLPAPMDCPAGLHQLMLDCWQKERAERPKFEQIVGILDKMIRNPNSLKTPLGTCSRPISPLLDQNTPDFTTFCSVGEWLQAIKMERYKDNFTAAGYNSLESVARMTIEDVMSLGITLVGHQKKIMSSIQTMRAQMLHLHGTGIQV

[4] = target: Ribosomal protein S6 kinase alpha-6 (Homo sapiens) (UniProt Q9UK32); assay: Inhibition of human RSK4 at 500 nM by HotSpot assay relative to control
Chain of Ribosomal protein S6 kinase alpha-6 (Homo sapiens) (Q9UK32 whole entry): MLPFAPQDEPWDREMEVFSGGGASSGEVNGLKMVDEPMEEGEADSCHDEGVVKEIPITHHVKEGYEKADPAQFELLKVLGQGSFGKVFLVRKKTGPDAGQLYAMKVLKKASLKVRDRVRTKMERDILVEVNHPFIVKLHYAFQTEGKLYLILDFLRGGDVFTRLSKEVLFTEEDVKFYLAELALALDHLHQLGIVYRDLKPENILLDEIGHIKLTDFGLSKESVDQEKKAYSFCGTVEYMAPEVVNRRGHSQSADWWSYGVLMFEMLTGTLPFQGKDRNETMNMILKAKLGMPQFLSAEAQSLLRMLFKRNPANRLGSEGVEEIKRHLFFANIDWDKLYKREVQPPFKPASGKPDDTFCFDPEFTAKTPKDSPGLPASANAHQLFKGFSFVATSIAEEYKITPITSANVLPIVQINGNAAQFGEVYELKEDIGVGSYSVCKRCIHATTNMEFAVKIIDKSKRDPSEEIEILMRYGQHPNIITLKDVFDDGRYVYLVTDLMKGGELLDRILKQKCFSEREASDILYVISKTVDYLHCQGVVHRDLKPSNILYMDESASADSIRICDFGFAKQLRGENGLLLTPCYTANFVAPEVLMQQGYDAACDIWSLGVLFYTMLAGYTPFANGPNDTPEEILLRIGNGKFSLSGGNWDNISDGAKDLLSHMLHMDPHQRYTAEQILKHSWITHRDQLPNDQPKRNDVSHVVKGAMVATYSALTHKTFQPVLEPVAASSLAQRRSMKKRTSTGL

[5] = target: T3, Serine/threonine-protein kinase Sgk1 (Homo sapiens) (UniProt O00141); assay: Inhibition of human SGK1 at 500 nM by HotSpot assay relative to control
T3 sequence (whole entry): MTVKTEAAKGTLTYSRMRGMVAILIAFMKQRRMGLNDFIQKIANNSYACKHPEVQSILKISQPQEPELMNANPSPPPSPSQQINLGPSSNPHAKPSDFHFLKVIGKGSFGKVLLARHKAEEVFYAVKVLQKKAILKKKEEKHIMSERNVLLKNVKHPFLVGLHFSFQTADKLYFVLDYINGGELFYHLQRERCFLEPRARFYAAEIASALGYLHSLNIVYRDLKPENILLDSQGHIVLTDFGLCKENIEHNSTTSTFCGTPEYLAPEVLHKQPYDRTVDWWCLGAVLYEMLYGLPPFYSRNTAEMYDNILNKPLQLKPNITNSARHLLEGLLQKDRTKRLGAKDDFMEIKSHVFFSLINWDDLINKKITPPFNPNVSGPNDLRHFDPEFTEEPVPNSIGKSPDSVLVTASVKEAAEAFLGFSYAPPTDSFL

[6] = target: Non-receptor tyrosine-protein kinase TYK2 (Homo sapiens) (UniProt P29597); assay: Inhibition of human TYK2 at 500 nM by HotSpot assay relative to control
Chain of Non-receptor tyrosine-protein kinase TYK2 (Homo sapiens) (P29597 whole entry): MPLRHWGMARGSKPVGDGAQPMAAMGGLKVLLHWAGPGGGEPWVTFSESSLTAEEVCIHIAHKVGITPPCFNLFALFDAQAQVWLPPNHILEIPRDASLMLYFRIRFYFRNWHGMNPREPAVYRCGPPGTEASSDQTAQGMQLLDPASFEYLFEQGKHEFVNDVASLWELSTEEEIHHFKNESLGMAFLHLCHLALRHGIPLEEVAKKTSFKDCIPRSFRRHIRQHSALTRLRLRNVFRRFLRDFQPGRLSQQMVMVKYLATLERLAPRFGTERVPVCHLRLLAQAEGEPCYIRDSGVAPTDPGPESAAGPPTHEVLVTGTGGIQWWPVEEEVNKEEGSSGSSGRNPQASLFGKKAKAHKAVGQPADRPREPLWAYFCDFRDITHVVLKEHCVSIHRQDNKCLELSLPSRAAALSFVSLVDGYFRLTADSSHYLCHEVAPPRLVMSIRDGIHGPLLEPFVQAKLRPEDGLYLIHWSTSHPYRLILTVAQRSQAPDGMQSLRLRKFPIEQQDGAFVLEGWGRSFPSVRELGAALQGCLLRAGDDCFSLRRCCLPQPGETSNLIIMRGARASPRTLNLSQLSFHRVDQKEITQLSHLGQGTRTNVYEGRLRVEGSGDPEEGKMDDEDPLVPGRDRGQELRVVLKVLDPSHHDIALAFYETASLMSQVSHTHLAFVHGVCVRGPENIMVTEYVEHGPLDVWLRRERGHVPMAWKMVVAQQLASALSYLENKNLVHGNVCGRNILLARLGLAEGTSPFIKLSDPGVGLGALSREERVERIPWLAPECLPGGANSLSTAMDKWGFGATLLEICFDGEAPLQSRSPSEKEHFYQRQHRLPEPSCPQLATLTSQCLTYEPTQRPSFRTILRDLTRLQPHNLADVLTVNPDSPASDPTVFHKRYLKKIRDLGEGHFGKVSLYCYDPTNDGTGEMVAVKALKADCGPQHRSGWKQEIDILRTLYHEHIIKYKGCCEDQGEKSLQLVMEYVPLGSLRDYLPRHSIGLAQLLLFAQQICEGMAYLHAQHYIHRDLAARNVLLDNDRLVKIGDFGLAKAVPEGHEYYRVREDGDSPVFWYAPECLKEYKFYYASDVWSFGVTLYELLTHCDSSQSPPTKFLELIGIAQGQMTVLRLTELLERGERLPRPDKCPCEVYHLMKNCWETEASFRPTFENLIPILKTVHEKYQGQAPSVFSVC

| Structure (SMILES) | inhibition [1] [%] | inhibition [2] [%] | inhibition [3] [%] | inhibition [4] [%] | inhibition [5] [%] | inhibition [6] [%] |
| --- | --- | --- | --- | --- | --- | --- |
| Oc1n[nH]c2nnc(-c3c(-c4ccccc4)nn4ccccc34)cc12 | 6.43 | -2.78 | 0.96 | -2.71 | -4.65 | -3.67 |
| Nc1n[nH]c2nnc(-c3c(-c4ccccc4)nn4ccccc34)cc12 | 15.6 | -0.55 | 0.55 | 4.48 | 0.11 | -3.67 |
